ChEMBL document CHEMBL1149921 (Bioorg Med Chem Lett, 1996)

Legend:
[1] = molecular target: T1, Neprilysin (Rattus norvegicus) (UniProt P07861); test: Compound was tested for inhibitory activity against neutral endopeptidase (NEP) at concentration 1000 nM
T1 sequence (whole entry): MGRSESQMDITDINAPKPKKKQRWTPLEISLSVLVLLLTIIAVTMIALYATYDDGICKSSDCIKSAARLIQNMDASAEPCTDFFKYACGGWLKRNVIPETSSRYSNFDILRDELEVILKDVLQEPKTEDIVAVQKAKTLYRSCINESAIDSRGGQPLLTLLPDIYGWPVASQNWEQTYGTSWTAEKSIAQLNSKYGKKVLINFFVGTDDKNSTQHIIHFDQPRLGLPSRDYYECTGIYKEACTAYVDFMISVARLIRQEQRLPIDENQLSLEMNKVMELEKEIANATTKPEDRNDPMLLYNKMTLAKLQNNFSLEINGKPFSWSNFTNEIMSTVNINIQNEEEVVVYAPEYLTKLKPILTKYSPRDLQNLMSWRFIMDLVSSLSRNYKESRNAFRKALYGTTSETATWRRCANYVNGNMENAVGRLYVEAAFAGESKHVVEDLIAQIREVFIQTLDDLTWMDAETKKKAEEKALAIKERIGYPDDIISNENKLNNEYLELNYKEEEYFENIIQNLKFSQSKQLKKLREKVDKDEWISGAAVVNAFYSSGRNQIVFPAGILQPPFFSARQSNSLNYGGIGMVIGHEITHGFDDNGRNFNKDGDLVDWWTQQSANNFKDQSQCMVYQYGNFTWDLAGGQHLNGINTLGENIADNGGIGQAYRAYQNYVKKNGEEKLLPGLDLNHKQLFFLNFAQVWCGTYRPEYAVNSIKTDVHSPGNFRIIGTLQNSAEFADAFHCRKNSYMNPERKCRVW

Neprilysin [2] = molecular target: T2, Neprilysin (Rattus norvegicus, UniProt P07861); test: compound was tested for inhibitory activity against neutral endopeptidase (NEP)
T2 sequence (P07861 whole entry): T1 sequence (whole entry)

[3] = molecular target: T1, Neprilysin (Rattus norvegicus); test: Compound was tested for inhibitory activity against neutral endopeptidase (NEP) at concentration 300 nM
[4] = molecular target: Neprilysin (Rattus norvegicus) (UniProt P07861); test: Compound was tested for inhibitory activity against neutral endopeptidase (NEP) at concentration 10 nM
[5] = molecular target: T3, Endothelin-converting enzyme 1 (Homo sapiens) (UniProt P42892); test: Compound was tested for inhibitory activity against Endothelin-converting enzyme isolated from guinea pig lung membrane at concentration 10 nM; format: tissue-based; details: Cavia porcellus, target entry is the homologue from another species
T3 sequence (whole entry): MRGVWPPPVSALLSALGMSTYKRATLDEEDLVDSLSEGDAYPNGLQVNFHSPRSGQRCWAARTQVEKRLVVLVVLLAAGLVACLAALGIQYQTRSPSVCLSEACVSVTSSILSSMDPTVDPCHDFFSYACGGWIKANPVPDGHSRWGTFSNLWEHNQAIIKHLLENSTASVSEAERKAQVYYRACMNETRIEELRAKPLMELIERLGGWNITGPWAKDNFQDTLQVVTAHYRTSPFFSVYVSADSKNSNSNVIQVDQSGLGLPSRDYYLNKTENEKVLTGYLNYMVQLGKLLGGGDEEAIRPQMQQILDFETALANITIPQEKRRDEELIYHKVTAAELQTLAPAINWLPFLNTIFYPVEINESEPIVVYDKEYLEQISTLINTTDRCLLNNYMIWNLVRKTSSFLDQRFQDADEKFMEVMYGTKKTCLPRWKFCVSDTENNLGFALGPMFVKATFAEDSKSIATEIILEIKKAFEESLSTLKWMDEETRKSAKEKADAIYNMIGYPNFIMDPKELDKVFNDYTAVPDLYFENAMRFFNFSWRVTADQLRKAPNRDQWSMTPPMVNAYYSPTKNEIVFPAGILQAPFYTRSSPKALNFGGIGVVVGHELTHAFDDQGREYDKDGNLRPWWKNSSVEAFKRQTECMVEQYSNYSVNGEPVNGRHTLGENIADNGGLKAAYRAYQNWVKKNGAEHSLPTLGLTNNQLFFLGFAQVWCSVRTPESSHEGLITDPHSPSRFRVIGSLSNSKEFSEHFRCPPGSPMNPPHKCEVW

Neprilysin [6] = molecular target: T2, Neprilysin; test: Compound was tested for inhibitory activity against neutral endopeptidase (NEP)

Molecule `CC(C)C(CP(=O)(O)C(Cc1ccccc1)NC(=O)[C@H](CCCCN)NC(=O)OCc1ccccc1)C(=O)N[C@@H](Cc1c[nH]c2ccccc12)C(=O)O` (stereo not given in full) has an inhibition [1] of 0%.

For `CC(C)CC(CP(=O)(O)C(CC(C)C)NC(=O)[C@H](CCCCNC(=O)OCc1ccccc1)NS(C)(=O)=O)C(=O)N[C@@H](Cc1c[nH]c2ccccc12)C(=O)O` (stereo not given in full), the IC50 (Neprilysin [2]) was 320 nM.

In the case of `CC(C)CC(CP(=O)(O)C(Cc1ccc2ccccc2c1)NC(=O)[C@H](CCCCN)NS(C)(=O)=O)C(=O)N[C@@H](Cc1c[nH]c2ccccc12)C(=O)O` (stereo not given in full), the inhibition [3] is reported as 18%.

`CC(C)CC(CP(=O)(O)C(N)Cc1ccccc1)C(=O)N[C@@H](Cc1c[nH]c2ccccc12)C(=O)O` (stereo not given in full) was tested, and the inhibition [4] was 31%.

Molecule `CC(C)C(CP(=O)(O)C(Cc1ccccc1)NC(=O)[C@H](CCCCN)NS(C)(=O)=O)C(=O)N[C@@H](Cc1c[nH]c2ccccc12)C(=O)O` (stereo not given in full) has an IC50 (Neprilysin [2]) of 800 nM.

`CC(C)CC(CP(=O)(O)C(Cc1ccc2ccccc2c1)NC(=O)[C@H](CCCCNC(=O)OCc1ccccc1)NS(C)(=O)=O)C(=O)N[C@@H](Cc1c[nH]c2ccccc12)C(=O)O` (stereo not given in full) gave an inhibition [3] of 13%.

With `CC(C)CC(NC(=O)[C@H](CCCCNC(=O)OCc1ccccc1)NS(C)(=O)=O)P(=O)(O)CC(C)C(=O)N[C@@H](Cc1c[nH]c2ccccc12)C(=O)O` (stereo not given in full) the inhibition [5] was 57% and the IC50 (Neprilysin [6]) was 370 nM.

`CC(C)CC(CP(=O)(O)C(Cc1ccccc1)NC(=O)[C@H](CC(C)C)NC(=O)OCc1ccccc1)C(=O)N[C@@H](Cc1c[nH]c2ccccc12)C(=O)O` (stereo not given in full) was tested, and the inhibition [3] was 9%.

For `CC(C)C(CP(=O)(O)C(Cc1ccccc1)NC(=O)[C@H](CCCCNC(=O)OCc1ccccc1)NS(C)(=O)=O)C(=O)N[C@@H](Cc1c[nH]c2ccccc12)C(=O)O` (stereo not given in full), the inhibition [3] was 19%.
